This note sets out measurements from US20110207944A1, “VITAMIN D3 LACTAM DERIVATIVE” (TEIJIN PHARMA LIMITED, priority 2008, published 2011).

The test addresses T1, human VDR (Homo sapiens, UniProt P11473).
T1 construct: expressed in transfected cells; host or cells: HOS cells (human osteosarcoma, ATCC), pcDNA3 expression vector, Lipofectamine 2000
T1 sequence (P11473 1-427): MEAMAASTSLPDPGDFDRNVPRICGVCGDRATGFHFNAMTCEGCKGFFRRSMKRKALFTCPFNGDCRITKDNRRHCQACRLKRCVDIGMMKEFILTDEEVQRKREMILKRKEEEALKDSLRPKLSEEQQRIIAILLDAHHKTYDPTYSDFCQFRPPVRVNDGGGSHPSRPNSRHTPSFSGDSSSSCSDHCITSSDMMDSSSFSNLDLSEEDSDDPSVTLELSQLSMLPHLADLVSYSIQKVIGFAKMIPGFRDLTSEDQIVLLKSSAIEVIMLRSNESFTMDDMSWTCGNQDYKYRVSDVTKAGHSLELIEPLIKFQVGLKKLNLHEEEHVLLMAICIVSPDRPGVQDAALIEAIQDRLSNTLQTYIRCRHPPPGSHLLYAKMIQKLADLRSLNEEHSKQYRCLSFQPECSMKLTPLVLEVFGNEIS
The test is described as follows: Vitamin D3 receptor-antagonist activity: human osteocalcin promoter luciferase reporter in HOS cells transfected with human VDR and human RXR. It counts as cell-based. The note with it: for Antagonist specific activity against TEI-9647 (%): IC50 of test compound with respect to IC50 of TEI-9647 in each experiment; for IC50: luciferase activity in HOS cells, with 1α,25-dihydroxyvitamin D3 1×10^−8 M, 24 hours. An excerpt:
Vitamin D3 Receptor-Antagonist Activity in Terms of the Transcription Activity in Human Osteocalcin by 1α,25-dihydroxyvitamin D3 as a Marker
(1) A pGL3 vector (Promega Corp.) was used as a reporter vector. The promoter sequence of the human osteocalcin gene, which was obtained by a known method (Ozono et al., J. Biol. Chem., 265:21881-21888, 1990), was cloned from cDNA acquired from HOS cells (obtained from ATCC) and inserted into the upstream of the luciferase gene on the reporter vector. An expression vector was constructed by inserting a DNA sequence encoding human VDR and human RXR into a pcDNA3 vector (Invitrogen Corp). The HOS cells were incubated in a DMEM medium supplemented with 10% FBS at 37° C. in the presence of 5% CO2, and subcultivated every 2 or 3 days.
(2) Cells being subcultivated were collected by centrifugation and re-suspended in a serum and phenol red-free DMEM medium at 4×10^5 cells/mL. The re-suspension of cells was plated in a 96 well plate at 0.1 mL/well. In this system, various vectors described in (1) were added at 0.05 mL/well with Lipofectamin 2000 (Invitrogen Corp.). After the incubation for 3 hours at 37° C., 1α,25-dihydroxyvitamin D3 and the compounds of the present invention in various concentrations or TEI-9647 (note) as a control (the final concentration: 1×10^−8 M for 1α,25-dihydroxyvitamin D3, and 1×10^−6M and 1×10^−12M for the compounds of the present invention and TEI-9647) were added to each well. After incubation at 37° C. for 24 hours, the medium was removed, the cells were washed with PBS(−) once, and measured for the luciferase activity using a Dual Glo-Luciferase Assay kit (Promega Corp.) by luminometer (Berthold Corp.). The resulting luciferase values were plotted against the concentration of the test compounds and IC50 was determined as the concentration of the test compound at which the luciferase value was inhibited by 50%. Furthermore, to compare the intensities of activity among experiments, the IC50 value of the test compounds with respect to the IC50 value of […] in each experiment was calculated as the antagonist specific activity (%) against TEI-9647.
(A reporter such as luciferase makes a cellular process visible.)

With `C=C1/C(=C\C=C2/CCC[C@]3(C)[C@@H]([C@H](C)CC4CC(C)(O)C(=O)N4CCc4ccccc4)CC[C@@H]23)C[C@@H](O)[C@H](C)[C@@H]1O` (stereo partly drawn) [Compound No. 11a, 2α-methyl-1α,25-dihydroxyvitamin D3-26,23-lactam-N-(2-phenethyl)], the “Antagonist specific activity against TEI-9647 (%)” value (shortened to “Antagonist specific activity … (%)”) came out at 90.5% and the IC50 – broadly, the concentration needed to halve the response being measured – worked out at 0.0275 µM.

Take `C=C1/C(=C\C=C2/CCC[C@]3(C)[C@@H]([C@H](C)C[C@H]4C[C@](C)(O)C(=O)N4CCc4ccccc4)CC[C@@H]23)C[C@@H](O)[C@H](CCCO)[C@@H]1O` [Compound No. 12a, 2α-(3-hydroxypropyl)-1α,25-dihydroxyvitamin D3-26,23-lactam-N-(2-phenethyl)]: the “Antagonist specific activity … (%)” value was determined as 143.1% and the IC50 amounted to 0.0174 µM.

With `C=C1/C(=C\C=C2/CCC[C@]3(C)[C@@H]([C@H](C)C[C@H]4C[C@](C)(O)C(=O)N4CCc4ccccc4)CC[C@@H]23)C[C@@H](O)[C@H](OCCCO)[C@@H]1O` [Compound No. 13a, 2α-(3-hydroxypropoxy)-1α,25-dihydroxyvitamin D3-26,23-lactam-N-(2-phenethyl)], the “Antagonist specific activity … (%)” value was found to be 29.9% and the IC50 came out at 0.0833 µM.
